Results published in PubChem BioAssay (NCI).
Several values for one entry are separate records, joined by “and”; a condition that tells them apart may be missing. Identical values can stand only once.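 Test compounds were applied to cells in 96-well plates for 48 hours at 5 doses. GI50: concentration for 50% inhibition of growth. TGI is the concentration that stops growth completely.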

How the values were obtained:
Assay in all cases: DTP human tumour cell line panel, 48 h
EKVX NSCLC = system: EKVX NSCLC
OVCAR-5 ovarian = system: OVCAR-5 ovarian
NCI-H522 lung = system: NCI-H522 lung
OVCAR-3 ovarian = system: OVCAR-3 ovarian
U251 CNS = system: U251 CNS
HCC-2998 colon = system: HCC-2998 colon
HCT-116 colon = system: HCT-116 colon
SR leukemia = system: SR leukemia
KM12 colon = system: KM12 colon
MCF7 breast = system: MCF7 breast
DU-145 prostate = system: DU-145 prostate
HS 578T breast = system: HS 578T breast

| SMILES | TGI (EKVX NSCLC) | TGI (OVCAR-5 ovarian) | TGI (NCI-H522 lung) [µM] | TGI (OVCAR-3 ovarian) | TGI (U251 CNS) | TGI (HCC-2998 colon) [µM] | GI50 (HCT-116 colon) [µM] | TGI (HCT-116 colon) [µM] | GI50 (SR leukemia) | TGI (SR leukemia) [µM] | TGI (KM12 colon) | TGI (MCF7 breast) [µM] | TGI (DU-145 prostate) | TGI (HS 578T breast) [µM] | GI50 (OVCAR-5 ovarian) | GI50 (MCF7 breast) | GI50 (NCI-H522 lung) | GI50 (OVCAR-3 ovarian) | GI50 (U251 CNS) | GI50 (KM12 colon) |
| --- | --- | --- | --- | --- | --- | --- | --- | --- | --- | --- | --- | --- | --- | --- | --- | --- | --- | --- | --- | --- |
| CC(=O)OCC1OC(n2c(=S)n(-c3ccccc3)c(=O)c3cc(Br)ccc32)C(OC(C)=O)C(OC(C)=O)C1OC(C)=O (configuration not stated) | > 100 µM | > 100 µM | > 100 | > 100 µM | > 100 µM | > 100 | > 100 | > 100 | > 100 µM and 12 µM | > 100 | > 100 µM | – | – | – | – | – | – | – | – | – |
| O=C1OC(C2Cc3ccc4c(c3C2=O)CCCC4)c2ccccc21 (configuration not stated) | > 100 µM | > 100 µM | > 100 | 88.2 µM | > 100 µM | 94.6 | – | > 100 | – | – | > 100 µM | > 100 | > 100 µM | 82 | – | – | – | – | – | – |
| COC(=O)C1Cc2c([nH]c3ccccc23)-c2[nH]c3ccccc3c2CC(NC(C)=O)C(=O)NCC(=O)NCC(=O)N1 (configuration not stated) | > 100 µM | > 100 µM | > 100 | > 100 µM | > 100 µM | – | – | > 100 | – | – | > 100 µM | – | > 100 µM | > 100 | – | – | – | – | – | – |
| O=c1[nH]cc(COCC(O)CO)c(=O)[nH]1 (configuration not stated) | > 100 µM | > 100 µM | > 100 | > 100 µM | > 100 µM | – | – | > 100 | – | – | > 100 µM | – | – | – | – | – | – | – | – | – |
| O=S1(=O)c2ccccc2-c2nccc3ccnc1c23 | > 100 µM | > 100 µM | 29.9 | > 100 µM | > 100 µM | 28.6 | – | > 100 | – | – | > 100 µM | > 100 | > 100 µM | > 100 | – | – | – | – | – | – |
| Oc1ccc2ccccc2c1NCn1nc(CCCCCCCCc2nn(CNc3c(O)ccc4ccccc34)c(=S)o2)oc1=S | > 100 µM | > 100 µM | > 100 | – | > 100 µM | > 100 | – | 79.4 | – | – | > 100 µM | > 100 | > 100 µM | – | – | – | – | – | – | – |
| CC1CN=C(NS(=O)(=O)c2cc(C(=O)Nc3ccccc3)c(Cl)cc2S)NN1 (configuration not stated) | > 100 µM | > 100 µM | 76.1 | > 100 µM | > 100 µM | > 100 | – | > 100 | – | > 100 | > 100 µM | > 100 | > 100 µM | – | – | – | – | – | – | – |
| C=CCN1C(=O)/C(=C/c2ccc(OC)cc2)N=C1SC1OC(COC(C)=O)C(OC(C)=O)C(OC(C)=O)C1OC(C)=O (configuration not stated) | 46 µM and > 100 µM | 39.7 µM and > 100 µM | > 100 | 30 µM and > 100 µM | 58.8 µM and > 100 µM | > 100 | – | > 100 | – | > 100 | 62.5 µM and > 100 µM | > 100 | 39.2 µM and > 100 µM | – | 19.3 µM and 56.3 µM | 11.7 µM and > 100 µM | 5.2 µM and 16.4 µM | 13.5 µM and 58.2 µM | 14.8 µM and 99.1 µM | 21.4 µM and > 100 µM |
| COC1=CC(=O)c2c(n[nH]c2CCNC(=O)OCc2ccccc2)C1=O | 32 µM | 32.1 µM | 21.1 | 32.2 µM | 26 µM | 39.6 | – | 24.9 | – | 65.5 | 22.9 µM | 22.2 | – | 69.1 | – | – | – | – | – | – |
